Our source for the Activity, EC50 and IC50 values is ChEMBL document CHEMBL1155836, “Discovery of imidazole carboxamides as potent and selective CCK1R agonists” (Bioorg Med Chem Lett, 2008).

Calls of active or inactive are those of the source. The rule behind the calls is not given here.

The target of one assay is T1, Gastrin/cholecystokinin type B receptor (Homo sapiens) (UniProt P32239).
T1 sequence (whole entry): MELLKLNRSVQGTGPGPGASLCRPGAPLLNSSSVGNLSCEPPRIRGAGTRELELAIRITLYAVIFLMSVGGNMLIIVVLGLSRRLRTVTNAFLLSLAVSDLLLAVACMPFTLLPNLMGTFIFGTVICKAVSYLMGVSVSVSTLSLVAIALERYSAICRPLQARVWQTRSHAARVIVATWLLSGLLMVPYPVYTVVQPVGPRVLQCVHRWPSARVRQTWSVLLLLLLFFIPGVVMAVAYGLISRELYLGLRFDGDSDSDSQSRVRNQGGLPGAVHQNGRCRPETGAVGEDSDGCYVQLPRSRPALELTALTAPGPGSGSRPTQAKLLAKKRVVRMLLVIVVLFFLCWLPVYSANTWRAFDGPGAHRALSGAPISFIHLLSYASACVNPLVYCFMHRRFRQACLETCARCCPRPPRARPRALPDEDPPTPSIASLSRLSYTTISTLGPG
The assay can be described thus: Agonist activity against human CCK2 receptor. The format is functional.
As to `CCOc1cccc(-n2cc(C(=O)N3CCN(c4ccc5ccccc5c4)CC3)nc2-c2c(F)cccc2F)c1`, the result was inactive.
With `COc1ccc(-n2cc(C(=O)N3CCN(c4ccc5ccccc5c4)CC3)nc2-c2ccc(C)cc2)cc1`, the result was inactive.
As to `Cc1ccc(-c2nc(C(=O)N3CCN(c4ccc5ccccc5c4)CC3)cn2-c2cccc3c2OCCO3)cc1`, the outcome was inactive.
With `COc1cccc(-n2cc(C(=O)N3CCN(c4cc5ccccc5cn4)CC3)nc2-c2ccc(C)cc2)c1`, the outcome was inactive.
Turning to `COc1cccc(-n2cc(C(=O)N3CCN(c4ccc5ccccc5c4)CC3)nc2-c2ccc(C)cc2)c1`, the result was inactive.
For the molecule `CCc1cccc(-n2cc(C(=O)N3CCN(c4ccc5ccccc5c4)CC3)nc2-c2ccc(C)cc2)c1`, the result was inactive.
Same read-out and setting: the value for `Cc1ccc(-c2nc(C(=O)N3CCN(c4ccc5ccccc5c4)CC3)cn2-c2ccc3c(c2)OCCO3)cc1` was “inactive”; that for `Cc1ccc(-c2nc(C(=O)N3CCN(c4ccc5ccccc5c4)CC3)cn2-c2cccc(OCC(F)(F)F)c2)cc1` was “inactive”.
Turning to `CCOc1cccc(-n2cc(C(=O)N3CCN(c4ccc5ccccc5c4)CC3)nc2-c2cccc(F)c2)c1`, the outcome was inactive.
Take `CCOc1cccc(-n2cc(C(=O)N3CCN(c4ccc5ccccc5c4)CC3)nc2-c2ccc(CC)cc2)c1`: the outcome was inactive.
Turning to `Cc1ccc(-c2nc(C(=O)N3CCN(c4ccc5ccccc5c4)CC3)cn2-c2cccc(OC(C)C)c2)cc1`, the outcome was inactive.
Still for that read-out and setting: then `CCOc1cccc(-n2cc(C(=O)N3CCN(c4ccc5ccccc5c4)CC3)nc2-c2ccc(Cl)cc2)c1`, with “inactive”.
Take `COc1cccc(-n2cc(C(=O)N3CCN(c4cccc(Cl)c4)CC3)nc2-c2ccc(C)cc2)c1`: the result was inactive.
With `COc1cccc(-n2cc(C(=O)N3CCN(c4ccc(Cl)c(Cl)c4)CC3)nc2-c2ccc(C)cc2)c1`, the result was inactive.

The next assay concerns the target T2, Cholecystokinin receptor type A (Homo sapiens, UniProt P32238).
T2 sequence (P32238 whole entry): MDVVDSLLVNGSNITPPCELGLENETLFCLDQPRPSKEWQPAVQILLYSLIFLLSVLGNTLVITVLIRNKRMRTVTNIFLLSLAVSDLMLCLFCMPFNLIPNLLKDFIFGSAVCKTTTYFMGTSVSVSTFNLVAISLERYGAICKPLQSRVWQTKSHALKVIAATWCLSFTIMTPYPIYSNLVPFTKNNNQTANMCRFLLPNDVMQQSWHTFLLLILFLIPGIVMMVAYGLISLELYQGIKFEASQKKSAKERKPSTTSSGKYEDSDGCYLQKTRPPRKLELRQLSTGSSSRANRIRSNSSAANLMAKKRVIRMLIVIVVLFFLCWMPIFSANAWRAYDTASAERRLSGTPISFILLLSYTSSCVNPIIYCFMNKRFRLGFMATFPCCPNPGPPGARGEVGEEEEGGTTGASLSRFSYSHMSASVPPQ
Kind of assay: Agonist activity against human CCK1 receptor. The format is functional.
By EC50 is commonly meant the midpoint of the concentration-response curve. `CCOc1cccc(-n2cc(C(=O)N3CCN(c4ccc5ccccc5c4)CC3)nc2-c2c(F)cccc2F)c1` showed an EC50 of 4.4 nM.
Still for that read-out and setting: the value for `COc1ccc(-n2cc(C(=O)N3CCN(c4ccc5ccccc5c4)CC3)nc2-c2ccc(C)cc2)cc1` was 20 nM; that for `Cc1ccc(-c2nc(C(=O)N3CCN(c4ccc5ccccc5c4)CC3)cn2-c2cccc3c2OCCO3)cc1` was 471 nM; that for `COc1cccc(-n2cc(C(=O)N3CCN(c4cc5ccccc5cn4)CC3)nc2-c2ccc(C)cc2)c1` was 8.4 nM.
Same read-out and setting: the value for `COc1cccc(-n2cc(C(=O)N3CCN(c4ccc5ccccc5c4)CC3)nc2-c2ccc(C)cc2)c1` was 9.6 nM; that for `CCc1cccc(-n2cc(C(=O)N3CCN(c4ccc5ccccc5c4)CC3)nc2-c2ccc(C)cc2)c1` was 65 nM; that for `Cc1ccc(-c2nc(C(=O)N3CCN(c4ccc5ccccc5c4)CC3)cn2-c2ccc3c(c2)OCCO3)cc1` was 0.99 nM.
In turn, `Cc1ccc(-c2nc(C(=O)N3CCN(c4ccc5ccccc5c4)CC3)cn2-c2cccc(OCC(F)(F)F)c2)cc1` came in with an EC50 of 1350 nM.
Take `CCOc1cccc(-n2cc(C(=O)N3CCN(c4ccc5ccccc5c4)CC3)nc2-c2cccc(F)c2)c1`: the concentration for a half-maximal effect (EC50) is 105 nM.
In turn, `CCOc1cccc(-n2cc(C(=O)N3CCN(c4ccc5ccccc5c4)CC3)nc2-c2ccc(CC)cc2)c1` registered an EC50 of 175 nM.
Molecule `Cc1ccc(-c2nc(C(=O)N3CCN(c4ccc5ccccc5c4)CC3)cn2-c2cccc(OC(C)C)c2)cc1` displayed an EC50 of 53 nM.
The same measure, in the same setting: the value for `CCOc1cccc(-n2cc(C(=O)N3CCN(c4ccc5ccccc5c4)CC3)nc2-c2ccc(Cl)cc2)c1` was 5.5 nM; that for `COc1cccc(-n2cc(C(=O)N3CCN(c4cccc(Cl)c4)CC3)nc2-c2ccc(C)cc2)c1` was 74 nM.
Molecule `COc1cccc(-n2cc(C(=O)N3CCN(c4ccc(Cl)c(Cl)c4)CC3)nc2-c2ccc(C)cc2)c1` came in with a half-maximal effective concentration (EC50) of 25 nM.

In the next assay the target is T1, Gastrin/cholecystokinin type B receptor (Homo sapiens). The assay can be described thus: Agonist activity against human CCK2 receptor assessed as receptor activation at 10000 nM. The format is functional.
For `CCOc1cccc(-n2cc(C(=O)N3CCN(c4ccc5ccccc5c4)CC3)nc2-c2c(F)cccc2F)c1`, the Activity is less than 12%.
With `COc1ccc(-n2cc(C(=O)N3CCN(c4ccc5ccccc5c4)CC3)nc2-c2ccc(C)cc2)cc1`, the Activity is less than 21%.
With `Cc1ccc(-c2nc(C(=O)N3CCN(c4ccc5ccccc5c4)CC3)cn2-c2cccc3c2OCCO3)cc1`, the Activity was less than 21%.
Regarding `COc1cccc(-n2cc(C(=O)N3CCN(c4cc5ccccc5cn4)CC3)nc2-c2ccc(C)cc2)c1`, the Activity is less than 20%.
Turning to `COc1cccc(-n2cc(C(=O)N3CCN(c4ccc5ccccc5c4)CC3)nc2-c2ccc(C)cc2)c1`, the Activity is less than 21%.
Take `CCc1cccc(-n2cc(C(=O)N3CCN(c4ccc5ccccc5c4)CC3)nc2-c2ccc(C)cc2)c1`: the Activity was less than 21%.
For the molecule `Cc1ccc(-c2nc(C(=O)N3CCN(c4ccc5ccccc5c4)CC3)cn2-c2ccc3c(c2)OCCO3)cc1`, the Activity was less than 21%.
Still for that read-out and setting: the value for `Cc1ccc(-c2nc(C(=O)N3CCN(c4ccc5ccccc5c4)CC3)cn2-c2cccc(OCC(F)(F)F)c2)cc1` was less than 21%.
As to `CCOc1cccc(-n2cc(C(=O)N3CCN(c4ccc5ccccc5c4)CC3)nc2-c2cccc(F)c2)c1`, the Activity is less than 12%.
Same read-out and setting: then `CCOc1cccc(-n2cc(C(=O)N3CCN(c4ccc5ccccc5c4)CC3)nc2-c2ccc(CC)cc2)c1`, with less than 12%.
For the molecule `Cc1ccc(-c2nc(C(=O)N3CCN(c4ccc5ccccc5c4)CC3)cn2-c2cccc(OC(C)C)c2)cc1`, the Activity is less than 21%.
Turning to `CCOc1cccc(-n2cc(C(=O)N3CCN(c4ccc5ccccc5c4)CC3)nc2-c2ccc(Cl)cc2)c1`, the Activity was less than 12%.
In the case of `COc1cccc(-n2cc(C(=O)N3CCN(c4cccc(Cl)c4)CC3)nc2-c2ccc(C)cc2)c1`, the Activity was less than 20%.
Same read-out and setting: the value for `COc1cccc(-n2cc(C(=O)N3CCN(c4ccc(Cl)c(Cl)c4)CC3)nc2-c2ccc(C)cc2)c1` was less than 20%.

Another assay concerns the target T2, Cholecystokinin receptor type A. The assay can be described thus: Inhibition of human CCK1 receptor.
By IC50 is commonly meant the concentration that inhibits the measured activity by half. Turning to `CCOc1cccc(-n2cc(C(=O)N3CCN(c4ccc5ccccc5c4)CC3)nc2-c2c(F)cccc2F)c1`, 1.9 nM corresponded to half-maximal inhibition (IC50).
On the same count and under the same terms, then `COc1ccc(-n2cc(C(=O)N3CCN(c4ccc5ccccc5c4)CC3)nc2-c2ccc(C)cc2)cc1`, with 6.9 nM; and `Cc1ccc(-c2nc(C(=O)N3CCN(c4ccc5ccccc5c4)CC3)cn2-c2cccc3c2OCCO3)cc1`, with 140 nM; and `COc1cccc(-n2cc(C(=O)N3CCN(c4cc5ccccc5cn4)CC3)nc2-c2ccc(C)cc2)c1`, with 1.9 nM.
Still for that read-out and setting: then `COc1cccc(-n2cc(C(=O)N3CCN(c4ccc5ccccc5c4)CC3)nc2-c2ccc(C)cc2)c1`, with 2.5 nM; and `CCc1cccc(-n2cc(C(=O)N3CCN(c4ccc5ccccc5c4)CC3)nc2-c2ccc(C)cc2)c1`, with 43 nM.
`Cc1ccc(-c2nc(C(=O)N3CCN(c4ccc5ccccc5c4)CC3)cn2-c2ccc3c(c2)OCCO3)cc1`: the concentration for half-maximal inhibition (IC50) is 0.42 nM.
Molecule `Cc1ccc(-c2nc(C(=O)N3CCN(c4ccc5ccccc5c4)CC3)cn2-c2cccc(OCC(F)(F)F)c2)cc1` returned a 50% inhibitory concentration (IC50) of 200 nM.
The molecule `CCOc1cccc(-n2cc(C(=O)N3CCN(c4ccc5ccccc5c4)CC3)nc2-c2cccc(F)c2)c1` displayed a concentration for half-maximal inhibition (IC50) of 35 nM.
For `CCOc1cccc(-n2cc(C(=O)N3CCN(c4ccc5ccccc5c4)CC3)nc2-c2ccc(CC)cc2)c1`, the concentration for half-maximal inhibition (IC50) worked out at 43 nM.
Turning to `Cc1ccc(-c2nc(C(=O)N3CCN(c4ccc5ccccc5c4)CC3)cn2-c2cccc(OC(C)C)c2)cc1`, the IC50 turned out to be 30 nM.
Take `CCOc1cccc(-n2cc(C(=O)N3CCN(c4ccc5ccccc5c4)CC3)nc2-c2ccc(Cl)cc2)c1`: the half-inhibitory concentration (IC50) amounted to 5.6 nM.
For `COc1cccc(-n2cc(C(=O)N3CCN(c4cccc(Cl)c4)CC3)nc2-c2ccc(C)cc2)c1`, the IC50 came to 14 nM.
For the molecule `COc1cccc(-n2cc(C(=O)N3CCN(c4ccc(Cl)c(Cl)c4)CC3)nc2-c2ccc(C)cc2)c1`, the IC50 came out at 8 nM.

For the next assay, the target named is T3, Cholecystokinin receptor type A (Homo sapiens) (UniProt P32238).
T3 sequence (whole entry): T2 sequence (P32238 whole entry)
Kind of assay: Agonist activity against human CCK1 receptor assessed as receptor activation at 10000 nM. The format is functional.
Consider `CCOc1cccc(-n2cc(C(=O)N3CCN(c4ccc5ccccc5c4)CC3)nc2-c2c(F)cccc2F)c1`, for which the Activity is 109%.
On to `COc1ccc(-n2cc(C(=O)N3CCN(c4ccc5ccccc5c4)CC3)nc2-c2ccc(C)cc2)cc1`, for which the Activity worked out at 110%.
`Cc1ccc(-c2nc(C(=O)N3CCN(c4ccc5ccccc5c4)CC3)cn2-c2cccc3c2OCCO3)cc1`: the Activity was 70%.
`COc1cccc(-n2cc(C(=O)N3CCN(c4cc5ccccc5cn4)CC3)nc2-c2ccc(C)cc2)c1`: the Activity stood at 89%.
Still for that read-out and setting: the value for `COc1cccc(-n2cc(C(=O)N3CCN(c4ccc5ccccc5c4)CC3)nc2-c2ccc(C)cc2)c1` was 99%.
Same read-out and setting: then `CCc1cccc(-n2cc(C(=O)N3CCN(c4ccc5ccccc5c4)CC3)nc2-c2ccc(C)cc2)c1`, with 101%; and `Cc1ccc(-c2nc(C(=O)N3CCN(c4ccc5ccccc5c4)CC3)cn2-c2ccc3c(c2)OCCO3)cc1`, with 89%.
Regarding `Cc1ccc(-c2nc(C(=O)N3CCN(c4ccc5ccccc5c4)CC3)cn2-c2cccc(OCC(F)(F)F)c2)cc1`, the Activity was determined as 95%.
With `CCOc1cccc(-n2cc(C(=O)N3CCN(c4ccc5ccccc5c4)CC3)nc2-c2cccc(F)c2)c1`, the Activity came to 106%.
Take `CCOc1cccc(-n2cc(C(=O)N3CCN(c4ccc5ccccc5c4)CC3)nc2-c2ccc(CC)cc2)c1`: the Activity came out at 83%.
With `Cc1ccc(-c2nc(C(=O)N3CCN(c4ccc5ccccc5c4)CC3)cn2-c2cccc(OC(C)C)c2)cc1`, the Activity turned out to be 94%.
For `CCOc1cccc(-n2cc(C(=O)N3CCN(c4ccc5ccccc5c4)CC3)nc2-c2ccc(Cl)cc2)c1`, the Activity worked out at 119%.
For the molecule `COc1cccc(-n2cc(C(=O)N3CCN(c4cccc(Cl)c4)CC3)nc2-c2ccc(C)cc2)c1`, the Activity was 89%.
In the case of `COc1cccc(-n2cc(C(=O)N3CCN(c4ccc(Cl)c(Cl)c4)CC3)nc2-c2ccc(C)cc2)c1`, the Activity came out at 99%.
